Target: T1, PD-1/PD-L1 (Homo sapiens, UniProt Q9NZQ7)
T1 construct: purchased Cisbio 63ADK000CPDEC
Test: PD-1/PD-L1 homogeneous time-resolved fluorescence (HTRF) binding assay
Settings: 665 nm/620 nm ratio
Excerpt: Test Example 1: Detect the Inhibitory Effect of the Compound to the Binding of PD-1/PD-L1 Protein
The PD-1/PD-L1 homogeneous time-resolved fluorescence method is used to detect the binding ability of the compound with PD-L1.
PD-1/PD-L1 binding assay kit (Cisbio, Cat #63ADK000CPDEC) was chosen, which contains two proteins Tag 1-PD-L1 and Tag 2-PD-1, and two antibodies Anti-Tag1-Eu^3+ and Anti-Tag2-XL 665. The principle of detection was: Anti-tag1-Eu^3+ was used as the donor of HTRF, and Anti-Tag2-XL 665 was used as the acceptor of HTRF. When Tag 1-PD-L1 interacts with Tag 2-PD-1, the added HTRF donor and the acceptor are close to each other. After the donor has received the excitation energy, part of the energy was transferred to the acceptor, thus generating 665 nm emission light. […] The inhibitory effect of the compound can be determined by comparing the ratio of 665 nm/620 nm. Tag 1-PD-L1 was diluted with Diluent buffer (cat #62DLBDDF) to a working concentration of 10 nM, Tag 2-PD-1 was diluted with Diluent buffer to a working concentration of 500 nM, Anti-Tag1-Eu^3+ was diluted with detection buffer (cat #62DB1FDG) at a ratio of 1:100, Anti-Tag2-XL 665 was diluted with detection buffer at a ratio of 1:20, and the compound to be detected was diluted with diluent buffer to a final concentration of 2×. Compound solution (2 μL) was added to each well of a 384-well plate, then Tag 1-PD-L1 (4 μL) and Tag 2-PD-1 (4 μL) were added successively. The mixture was incubated at room temperature for 15 minutes. Then Anti-Tag1-Eu^3+ (5 μL) and Anti-Tag2-XL 665 (5 μL) were added, and the mixture was incubated overnight at room temperature. BioTek Synergy™ Neo2 multifunctional microplate reader was used to detect so as to provide the 665 nm/620 nm ratio. PrismGraphd 5.02 was used to fit the IC50 curve.

T1 sequence (Q9NZQ7 19-238 limits assumed): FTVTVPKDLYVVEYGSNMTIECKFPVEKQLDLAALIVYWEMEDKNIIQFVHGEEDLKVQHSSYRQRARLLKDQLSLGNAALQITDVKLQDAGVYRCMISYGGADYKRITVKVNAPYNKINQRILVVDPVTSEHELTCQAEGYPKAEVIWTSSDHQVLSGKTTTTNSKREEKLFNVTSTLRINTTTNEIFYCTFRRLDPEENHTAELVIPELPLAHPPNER

Q: Which IC50 does the source give for `Cc1c(Nc2csc3cc(CNCCO)cnc23)cccc1-c1ccccc1` [Compound 1, 2-(((3-((2-Methyl-[1,1′-biphenyl]-3-yl)amino)thieno[3,2-b]pyridin-6-yl)methyl)amino)ethane-1-ol] here?
A: < 100 nM

Q: For `Cc1c(Nc2csc3cc(CN4C[C@@H](O)C[C@H]4C(=O)O)cnc23)cccc1-c1ccccc1` [Compound 2, (2S,4S)-4-hydroxy-1-((3-((2-methyl-[1,1′-biphenyl]-3-yl)amino)thieno[3,2-b]pyridine-6-yl)methyl)pyrrolidine-2-carboxylic acid], which IC50 is on record?
A: < 100 nM

Q: How did the IC50 turn out when `NC(=O)CNCc1nc2c(Nc3cccc(-c4ccccc4)c3Cl)nccc2s1` [Compound 3, 2-(((4-((2-chloro-[1,1′-biphenyl]-3-yl)amino)thiazolo[4,5-c]pyridin-2-yl)methyl)amino) acetamide] was run?
A: < 100 nM

Q: For `O=C(O)[C@@H]1C[C@H](O)CN1Cc1nc2c(Nc3cccc(-c4ccccc4)c3Cl)nccc2s1` [Compound 4], which IC50 is on record?
A: < 100 nM

Q: `OCCNCc1nc2c(Nc3cccc(-c4ccccc4)c3Cl)nccc2s1` [Compound 5, 2-(((4-((2-Chloro-[1,1′-biphenyl]-3-yl)amino)thiazolo[4,5-c]pyridin-2-yl)methyl)amino)ethane-1-ol] was tested. Which IC50 did it give?
A: < 100 nM

Q: With `O[C@@H]1CCN(Cc2nc3c(Nc4cccc(-c5ccccc5)c4Cl)nccc3s2)C1` [Compound 6, (R)-1-((4-((2-Chloro-[1,1′-biphenyl]-3-yl)amino)thiazolo[4,5-c]pyridin-2-yl)methyl)pyrrolidin-3-ol] as the compound, how does the IC50 read?
A: 100 to 1000 nM

Q: Which IC50 does the source give for `O[C@H]1CCN(Cc2nc3c(Nc4cccc(-c5ccccc5)c4Cl)nccc3s2)C1` [Compound 7, (S)-1-((4-((2-Chloro-[1,1′-biphenyl]-3-yl)amino)thiazolo[4,5-c]pyridin-2-yl)methyl)pyrrolidin-3-ol] here?
A: 100 to 1000 nM

Q: How did the IC50 turn out when `O=C(O)CNCc1nc2c(Nc3cccc(-c4ccccc4)c3Cl)nccc2s1` [Compound 8, ((4-((2-Chloro-[1,1′-biphenyl]-3-yl)amino)thiazolo[4,5-c]pyridin-2-yl)methyl)glycine] was run?
A: < 100 nM

Q: For `OCCNCc1nc2c(Nc3cccc(-c4ccc5c(c4)OCCO5)c3Cl)nccc2s1` [Compound 10, 2-(((4-((2-chloro-3-(2,3-dihydrobenzo[b][1,4]dioxin-6-yl)phenyl)amino)thiazolo[4,5-c)pyridin-2-yl)methyl)amino)ethane-1-ol], which IC50 is on record?
A: < 100 nM

Q: For `OCCNCc1nc2c(Nc3cccc(-c4cccc(OCCCCN5CCC(O)C5)c4)c3Cl)nccc2s1` (centres unmarked) [Compound 12, 1-(4-((2′-chloro-3′-((2-(((2-hydroxyethyl)amino)methyl)thiazolo[4,5-c]pyridin-4-yl)amino)-[1,1′-biphenyl]-3-yl)oxo)butyl)pyrrolidin-3-ol], which IC50 is on record?
A: < 100 nM

Q: How did the IC50 turn out when `CN(CCCO)CCCOc1cccc(-c2cccc(Nc3nccc4sc(CNCC(=O)O)nc34)c2Cl)c1` [Compound 14, ((4-((2-chloro-3′-(3-((3-hydroxypropyl)(methyl)amino)propoxy)-[1,1′-biphenyl]-3-yl)amino)thiazolo[4,5-c]pyridin-2-yl)methyl)glycine] was run?
A: < 100 nM

Q: With `O=C(O)CNCc1nc2c(Nc3cccc(-c4cccc(OCCCN5CCC(O)C5)c4)c3Cl)nccc2s1` (centres unmarked) [Compound 15, ((4-((2-chloro-3′-(3-(3-hydroxypyrrolidine-1-yl)propoxy)-[1,1′-biphenyl]-3-yl)amino)thiazolo[4,5-c]pyridine-2-yl)methyl)glycine] as the compound, how does the IC50 read?
A: < 100 nM

Q: How did the IC50 turn out when `Cc1c(OCCCN2CCC(O)C2)cccc1-c1cccc(Nc2nccc3sc(CNCC(=O)O)nc23)c1Cl` (centres unmarked) [Compound 16, ((4-((2-chloro-3′-(3-(3-hydroxypyrrolidin-1-yl)propoxy)-2′-methyl-[1,1′-biphenyl]-3-yl)amino)thiazolo[4,5-c]pyridin-2-yl)methyl)glycine] was run?
A: < 100 nM

Q: How did the IC50 turn out when `OCCNCc1nc2ccnc(Nc3cccc(-c4ccccc4)c3Cl)c2s1` [Compound 17, 2-(((4-((2-chloro-[1,1′-biphenyl]-3-yl)amino)thiazolo[5,4-c]pyridin-2-yl)methyl)amino)ethane-1-ol] was run?
A: 100 to 1000 nM

Q: With `COc1nc(-c2cccc(-c3cccc(Nc4nccc5sc(CNCC(=O)O)nc45)c3Cl)c2Cl)ccc1CNC[C@@H]1CCC(=O)N1` [Compound 18, (S)-((4-((2,2′-dichloro-3′-(6-methoxy-5-((((5-carbonylpyrrolidin-2-yl)methyl)amino)methyl)pyridin-2-yl)-[1,1′-biphenyl]-3-yl)amino)thiazolo[4,5-c]pyridin-2-yl)methyl)glycine] as the compound, how does the IC50 read?
A: < 100 nM

Q: Which IC50 does the source give for `COc1nc(-c2cccc(-c3cccc(Nc4nccc5sc(CNCC(=O)OCc6oc(=O)oc6C)nc45)c3Cl)c2Cl)ccc1CNC[C@@H]1CCC(=O)N1` [Compound 19, (5-methyl-2-carbonyl-1,3-dioxazole-4-yl) methyl (S)-((4-((2,2′-dichloro-3′-(6-methoxy-5-((5-carbonylpyrrolidin-2-yl)methyl)pyridine-2-yl)-[1,1′-biphenyl]-3-yl)amino)thiazolo [4,5-c]pyridine-2-yl)methyl) glycine] here?
A: < 100 nM

Q: Which IC50 does the source give for `COc1nc(-c2cccc(-c3cccc(Nc4nccc5sc(CNCC(=O)O)nc45)c3Cl)c2C)ccc1CNC[C@@H]1CCC(=O)N1` [Compound 20] here?
A: < 100 nM

Q: With `Cc1c(-c2ccc(CNC[C@@H]3CCC(=O)N3)c(O)n2)cccc1-c1cccc(Nc2nccc3sc(CNCC(=O)O)nc23)c1Cl` [Compound 21] as the compound, how does the IC50 read?
A: < 100 nM

Q: For `COc1nc(-c2cccc(-c3cccc(Nc4nccc5sc(CNCC(=O)O)nc45)c3Cl)c2Cl)ccc1CN1CC2(CCC(=O)N2)C1` [Compound 22], which IC50 is on record?
A: < 100 nM

Q: Which IC50 does the source give for `O=C(O)CNCc1nc2c(Nc3cccc(-c4cccc(-c5ccc(CNC[C@@H]6CCC(=O)N6)c(O)n5)c4Cl)c3Cl)nccc2n1CCO` [Compound 23] here?
A: < 100 nM

Q: With `COc1nc(-c2cccc(-c3cccc(Nc4nccc5sc(CNCC#N)nc45)c3Cl)c2Cl)ccc1CNC[C@@H]1CCC(=O)N1` [Compound 24] as the compound, how does the IC50 read?
A: < 100 nM

Q: Which IC50 does the source give for `COc1nc(-c2cccc(-c3cccc(Nc4nccc5sc(CNCC(=O)O)nc45)c3Cl)c2Cl)ccc1CN1CCC2(CNC(=O)C2)C1` (centres unmarked) [Compound 25] here?
A: < 100 nM

Q: Which IC50 does the source give for `COc1nc(-c2cccc(-c3cccc(Nc4nccc5sc(CNCC(=O)O)nc45)c3Cl)c2Cl)cnc1CNC[C@@H]1CCC(=O)N1` [Compound 26] here?
A: 100 to 1000 nM

Q: How did the IC50 turn out when `COc1nc(-c2cccc(-c3cccc(Nc4nccc5sc(CNCC(=O)O)nc45)c3Cl)c2Cl)cc(C)c1CNC[C@@H]1CCC(=O)N1` [Compound 27] was run?
A: < 100 nM

Q: For `COc1nc(-c2cccc(-c3cccc(Nc4nccc5sc(CNCC(=O)O)nc45)c3Cl)c2Cl)c(Cl)cc1CNC[C@@H]1CCC(=O)N1` [Compound 28], which IC50 is on record?
A: < 100 nM

Q: Which IC50 does the source give for `COc1nc(-c2cccc(-c3cccc(Nc4nccc5sc(CN6CC(NC(C)=O)C6)nc45)c3Cl)c2Cl)ccc1CN1CC2(CCC(=O)N2)C1` [Compound 29] here?
A: < 100 nM

Q: For `COc1nc(-c2cccc(-c3cccc(Nc4nccc5sc(CNCC(=O)O)nc45)c3Cl)c2Cl)cc(C)c1CN1CC2(CCC(=O)N2)C1` [Compound 30], which IC50 is on record?
A: < 100 nM

Q: For `COc1nc(-c2cccc(-c3cccc(Nc4nccc5sc(CN6C[C@@H](O)CC6=O)nc45)c3Cl)c2Cl)ccc1CN1CC2(CCC(=O)N2)C1` [Compound 31], which IC50 is on record?
A: < 100 nM

Q: Which IC50 does the source give for `COc1nc(-c2cccc(-c3cccc(Nc4nccc5sc(CN6CC(C(=O)O)C6)nc45)c3Cl)c2Cl)ccc1CN1CC2(CCC(=O)N2)C1` [Compound 32] here?
A: < 100 nM

Q: `COc1nc(-c2cccc(-c3cccc(Nc4nccc5sc(CN6CCC[C@H](C(=O)O)C6)nc45)c3Cl)c2Cl)ccc1CN1CC2(CCC(=O)N2)C1` [Compound 33] was tested. Which IC50 did it give?
A: < 100 nM

Q: How did the IC50 turn out when `COc1nc(-c2cccc(-c3cccc(Nc4nccc5sc(CNCc6nn[nH]n6)nc45)c3Cl)c2Cl)ccc1CN1CC2(CCC(=O)N2)C1` [Compound 39] was run?
A: < 100 nM

Q: How did the IC50 turn out when `COc1nc(-c2cccc(-c3cccc(Nc4nccc5sc(CN6CCC(C(=O)O)CC6)nc45)c3Cl)c2Cl)ccc1CNC[C@@H]1CCC(=O)N1` [Compound 40] was run?
A: < 100 nM

Q: For `COc1nc(-c2cccc(-c3cccc(Nc4nccc5sc(CN6CCC[C@@H]6C(=O)O)nc45)c3Cl)c2Cl)ccc1CNC[C@@H]1CCC(=O)N1` [Compound 41], which IC50 is on record?
A: < 100 nM

Q: `COc1nc(-c2cccc(-c3cccc(Nc4nccc5sc(CN6CCCC[C@@H]6C(=O)O)nc45)c3Cl)c2Cl)ccc1CNC[C@@H]1CCC(=O)N1` [Compound 42] was tested. Which IC50 did it give?
A: < 100 nM

Q: How did the IC50 turn out when `COc1cc(-c2cccc(-c3cccc(Nc4nccc5sc(CN6CCC(C(=O)O)CC6)nc45)c3Cl)c2Cl)nc(C)c1CNC[C@@H]1CCC(=O)N1` [Compound 43] was run?
A: < 100 nM

Q: How did the IC50 turn out when `COc1nc(-c2cccc(-c3cccc(Nc4nccc5sc(CN6CC[C@H](C(=O)O)C6)nc45)c3Cl)c2Cl)cc(C)c1CNC[C@@H]1CCC(=O)N1` [Compound 44] was run?
A: < 100 nM

Q: `COc1nc(-c2cccc(-c3cccc(Nc4nccc5sc(CN6CC[C@@H](C(=O)O)C6)nc45)c3Cl)c2Cl)cc(C)c1CNC[C@@H]1CCC(=O)N1` [Compound 45] was tested. Which IC50 did it give?
A: < 100 nM

Q: `COc1nc(-c2cccc(-c3cccc(Nc4nccc5sc(CN6CCC7(CNC(=O)C7)C6)nc45)c3Cl)c2Cl)cc(C)c1CNC[C@@H]1CCC(=O)N1` (some centres unmarked) [Compound 46] was tested. Which IC50 did it give?
A: < 100 nM
